PubChem BioAssay AID1963967 (Molecular Pharmacology Branch, DTP, NCI, 2024)

System: 855422-203-R-J1-PDC spheroids with HUVEC/MSC, viability
Test: Anticancer human tumor 855422-203-R-J1-PDC patient-derived bladder carcinoma cell line growth inhibition [PI3K]
Conditions: for IC50: curve of first compound; for viability, T/C: stronger effect = lower value
Outline: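 Spheroid viability read-out. Co-cultures contained the tumor line plus HUVEC and human MSCs. Each agent was paired with a PI3K inhibitor (inavolisib, alpelisib, duvelisib, copanlisib) across half-log dilutions starting at clinical Cmax, or at 10 microM when Cmax was unknown.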

[1] = second compound 0.00316 µM, first compound 0.0316 µM
[2] = second compound 0.00316 µM, first compound 0.1 µM
[3] = second compound 0.00316 µM, first compound 0.316 µM
[4] = second compound 0.00316 µM, first compound 1 µM
[5] = second compound 0.00316 µM, first compound 3.16 µM
[6] = second compound 0.00316 µM, first compound 10 µM
[7] = second compound 0.01 µM, first compound 0.0316 µM
[8] = second compound 0.01 µM, first compound 0.1 µM
[9] = second compound 0.01 µM, first compound 0.316 µM
[10] = second compound 0.01 µM, first compound 1 µM
[11] = second compound 0.01 µM, first compound 3.16 µM
[12] = second compound 0.01 µM, first compound 10 µM
[13] = second compound 0.0316 µM, first compound 0.0316 µM
[14] = second compound 0.0316 µM, first compound 0.1 µM
[15] = second compound 0.0316 µM, first compound 0.316 µM
[16] = second compound 0.0316 µM, first compound 1 µM
[17] = second compound 0.0316 µM, first compound 3.16 µM
[18] = second compound 0.0316 µM, first compound 10 µM
[19] = second compound 0.1 µM, first compound 0.0316 µM
[20] = second compound 0.1 µM, first compound 0.1 µM
[21] = second compound 0.1 µM, first compound 0.316 µM
[22] = second compound 0.1 µM, first compound 1 µM
[23] = second compound 0.1 µM, first compound 3.16 µM
[24] = second compound 0.1 µM, first compound 10 µM
[25] = second compound 0.316 µM, first compound 0.0316 µM
[26] = second compound 0.316 µM, first compound 0.1 µM
[27] = second compound 0.316 µM, first compound 0.316 µM
[28] = second compound 0.316 µM, first compound 1 µM
[29] = second compound 0.316 µM, first compound 3.16 µM
[30] = second compound 0.316 µM, first compound 10 µM
[31] = second compound 1 µM, first compound 0.0316 µM
[32] = second compound 1 µM, first compound 0.1 µM
[33] = second compound 1 µM, first compound 0.316 µM
[34] = second compound 1 µM, first compound 1 µM
[35] = second compound 1 µM, first compound 3.16 µM
[36] = second compound 1 µM, first compound 10 µM
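Note: agents incubated with spheroids for one week before read-out.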
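Throughout, for viability, T/C: 100% = DMSO vehicle-treated control wells.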

With C#Cc1c(F)ccc2cc(O)cc(-c3ncc4c(N5CC6CCC(C5)N6)nc(OCC56CCCN5CC(F)C6)nc4c3F)c12 (stereo unspecified) + CC(Nc1ccc2c(c1)OCCn1cc(N3C(=O)OCC3C(F)F)nc1-2)C(N)=O the IC50 (second compound 0.00316 µM) was greater than 10 µM, the IC50 (second compound 0.01 µM) was greater than 10 µM and the IC50 (second compound 0.0316 µM) was greater than 10 µM. The IC50 (second compound 0.1 µM) was greater than 10 µM, the IC50 (second compound 0.316 µM) was 3.61 µM and the IC50 (second compound 1 µM) was less than 0.0316 µM. It also gave a viability, T/C [1] of 94.4%, a viability, T/C [2] of 85.1% and a viability, T/C [3] of 109%. For the same molecule, the viability, T/C [4] was 89.2%, the viability, T/C [5] was 107% and the viability, T/C [6] was 110%. For the same molecule, the viability, T/C [7] was 106%, the viability, T/C [8] was 93% and the viability, T/C [9] was 96.6%. It also gave a viability, T/C [10] of 98.2%, a viability, T/C [11] of 110% and a viability, T/C [12] of 116%. It also gave a viability, T/C [13] of 82.4%, a viability, T/C [14] of 87.8% and a viability, T/C [15] of 89.9%. It also gave a viability, T/C [16] of 92.4%, a viability, T/C [17] of 105% and a viability, T/C [18] of 92.9%. The viability, T/C [19] was 71.7%, the viability, T/C [20] was 69.8% and the viability, T/C [21] was 58.7%. For the same molecule, the viability, T/C [22] was 82.8%, the viability, T/C [23] was 77.8% and the viability, T/C [24] was 73.6%. It also gave a viability, T/C [25] of 55.5%, a viability, T/C [26] of 55.3% and a viability, T/C [27] of 44.7%. It also gave a viability, T/C [28] of 54.6%, a viability, T/C [29] of 53.9% and a viability, T/C [30] of 29.1%. It also gave a viability, T/C [31] of 38.7%, a viability, T/C [32] of 31.5% and a viability, T/C [33] of 35.1%. For the same molecule, the viability, T/C [34] was 32.8%, the viability, T/C [35] was 29.4% and the viability, T/C [36] was 17.6%.
For C=CC(=O)N1CCN(c2nc(=O)n(-c3c(C)ccnc3C(C)C)c3nc(-c4c(O)cccc4F)c(F)cc23)C(C)C1 (stereo unspecified) + CC(Nc1ccc2c(c1)OCCn1cc(N3C(=O)OCC3C(F)F)nc1-2)C(N)=O, the IC50 (second compound 0.00316 µM) was greater than 10 µM, the IC50 (second compound 0.01 µM) was greater than 10 µM and the IC50 (second compound 0.0316 µM) was greater than 10 µM. It also gave an IC50 (second compound 0.1 µM) greater than 10 µM, an IC50 (second compound 0.316 µM) greater than 10 µM and an IC50 (second compound 1 µM) of less than 0.0316 µM. The viability, T/C [1] was 80.4%, the viability, T/C [2] was 95.2% and the viability, T/C [3] was 116%. For the same molecule, the viability, T/C [4] was 101%, the viability, T/C [5] was 122% and the viability, T/C [6] was 121%. The viability, T/C [7] was 96.1%, the viability, T/C [8] was 98.5% and the viability, T/C [9] was 121%. The viability, T/C [10] was 99.5%, the viability, T/C [11] was 119% and the viability, T/C [12] was 120%. For the same molecule, the viability, T/C [13] was 91.5%, the viability, T/C [14] was 81.1% and the viability, T/C [15] was 96.7%. It also gave a viability, T/C [16] of 90.6%, a viability, T/C [17] of 99.6% and a viability, T/C [18] of 99.5%. For the same molecule, the viability, T/C [19] was 80.2%, the viability, T/C [20] was 66.1% and the viability, T/C [21] was 75.5%. The viability, T/C [22] was 89%, the viability, T/C [23] was 80.8% and the viability, T/C [24] was 93.4%. The viability, T/C [25] was 54.5%, the viability, T/C [26] was 54.4% and the viability, T/C [27] was 53.8%. It also gave a viability, T/C [28] of 75%, a viability, T/C [29] of 73.9% and a viability, T/C [30] of 68.8%. The viability, T/C [31] was 39%, the viability, T/C [32] was 30.9% and the viability, T/C [33] was 39.2%. The viability, T/C [34] was 44%, the viability, T/C [35] was 50.6% and the viability, T/C [36] was 38.7%.
In the case of CC(Cn1ccc(-c2ccc(C#N)c(Cl)c2)n1)NC(=O)c1cc(C(C)O)[nH]n1 (stereo unspecified) + CC(Nc1ccc2c(c1)OCCn1cc(N3C(=O)OCC3C(F)F)nc1-2)C(N)=O, the IC50 (second compound 0.00316 µM) is reported as greater than 10 µM, the IC50 (second compound 0.01 µM) is reported as greater than 10 µM and the IC50 (second compound 0.0316 µM) is reported as greater than 10 µM. For the same molecule, the IC50 (second compound 0.1 µM) was greater than 10 µM, the IC50 (second compound 0.316 µM) was 1.67 µM and the IC50 (second compound 1 µM) was less than 0.0316 µM. The viability, T/C [1] was 106%, the viability, T/C [2] was 88% and the viability, T/C [3] was 115%. It also gave a viability, T/C [4] of 86.7%, a viability, T/C [5] of 99% and a viability, T/C [6] of 86%. For the same molecule, the viability, T/C [7] was 105%, the viability, T/C [8] was 82.4% and the viability, T/C [9] was 107%. The viability, T/C [10] was 99.9%, the viability, T/C [11] was 88.4% and the viability, T/C [12] was 79.6%. The viability, T/C [13] was 83.3%, the viability, T/C [14] was 83.7% and the viability, T/C [15] was 82%. The viability, T/C [16] was 85%, the viability, T/C [17] was 97.8% and the viability, T/C [18] was 70.3%. It also gave a viability, T/C [19] of 67.1%, a viability, T/C [20] of 71.9% and a viability, T/C [21] of 75.6%. The viability, T/C [22] was 71.8%, the viability, T/C [23] was 66.4% and the viability, T/C [24] was 63.4%. The viability, T/C [25] was 53.4%, the viability, T/C [26] was 51.3% and the viability, T/C [27] was 59.7%. For the same molecule, the viability, T/C [28] was 49.6%, the viability, T/C [29] was 46.1% and the viability, T/C [30] was 44.7%. It also gave a viability, T/C [31] of 35.6%, a viability, T/C [32] of 40.9% and a viability, T/C [33] of 36.1%. It also gave a viability, T/C [34] of 36.2%, a viability, T/C [35] of 33.6% and a viability, T/C [36] of 28.9%.
